Laboratory results published in EP0695746A2, “Antiviral compounds and pharmaceutical compositions” (PHARMA MAR, S.A., priority 1994, dated 1996).
≈ marks a conversion by molar mass, not a printed value.

Key:
[1] = tested on: HIV-1 p24 core antigen; test: p24 ELISA on supernatant of the cytotoxic assay wells; assay type: cell-based
Description: Secondary assays for evaluating antiviral activity included the syncytial-forming assay and p24 ELISA's. The first assay was described above. The p24 assay was performed by purchasing the p24 kit for the human immunodeficiency virus for p24 antigen assays from the Coulter Corporation, Hialeah, FL. […] The preparation of a mouse monoclonal antibody with high specificity and affinity for the viral p24 protein has allowed the development of an extremely sensitive ELISA for HIV-1 p24 core antigen.
An assay for antiviral activity to HIV-1 was started on 10-28-93 using the cytotoxic assay as described above and HIV-1 activity was observed microscopically in this sample on day 4 of the cytotoxic assay. On day six, 10 µl of supernatant fluid were removed from the cytotoxic wells and assayed for p24. The results of the cytotoxic assay, p24 assay, and syncytia assay were: […]

[2] = tested on: CD-1 mice; test: In vivo toxicity test, single injection
Description: The LD₅₀ for the compound was > 150 mg/kg.

[3] = tested on: CEM-SS cells; test: XTT cytoprotection assay (Cytotoxic Assay), toxicity wells without virus; assay type: cell-based, human; conditions: Table VI, assay date
Description: This assay is a measure of the viability of human T cell lines after infection with HIV in the presence of potential antiviral compounds. The results are assessed spectrophometrically by reading optical densities after the addition of XTT to determine if the viable cells reduced the pale yellow tetrazolium reagent (XTT) to an orange formazan product. This assay can be utilized for the initial screen of large numbers of samples. For the cytoprotection assay CEM-SS cells and HIV-1 RF strain of virus were used. Test samples were first diluted in an appropriate solvent, and 10 to 50 μl were transferred to the test plate. If the solvent was methanol or a similar solvent, the plates were allowed to evaporate. If medium was used for dilutions the plates were covered and the volume of test sample was taken into consideration when adding cells and virus. At each test concentration 50 μl of sample were added to three wells, one for toxicity tests, one for color control, and one for antiviral activity. Assuming the solvent was evaporated, 150 μl cells are added to all wells, except the control wells for medium only, so that the cell concentration per well was 5000. Then 50 μl of HIV-1 virus was added to each test well so that the M.O.I. was approximately 0.31. For toxicity tests 50 μl of medium were added to the control well. The plates were incubated in 5% CO2 for 6 days at 37°C. After incubation, the XTT solution was added to the plates, and after 4 hours incubation at 37°C the plates are covered with clear plastic sealers. Cell viability was measured by the visible light absorbance at 450 nm and a reference wavelength of 650 nm. Data were expressed as a percentage of formazan produced in drug test wells compared to formazan produced in wells of untreated control cells. CEM-SS cells were maintained with growth medium RPMI 1640, 10% fetal bovine serum, 2% L-glutamine (200 mM), and 50 μg/ml gentamicin in a 5% CO2 water-saturated atmosphere. Cells were maintained in the logarithmic growth state by subdividing cultures when the cell concentrations reach an upper limit of 1 x 10^6 cells per ml. […] Polybrene medium was removed by centrifugation, and CEM-SS cells were resuspended in growth medium. If solvents were evaporated the cell concentration was 33,500 cells per ml so that 150 μl contained 5000 cells. If medium was the dilution vehicle then the cell concentration was 50,000 so that 100 μl contained 5000 cells. The total test volume for medium, cells, and virus was 200 μl. Dissolve XTT in medium, add PMS/PBS. Warm to 37°C for approximately 10 to 15 minutes to obtain an homogeneous solution. Add 50 μl per plate Incubate for 4 hours. Read A(450-650) nm. B.2.5. Data processing After the plates were read spectrophotometrically the data was transferred via modem from the laboratory to the office. The data was processed to convert optical density readings to a percentage of inhibition compared to CEM-SS cells that have not been infected with HIV-1 virus. C = cells D = Drug or Sample M = Medium V = Virus M = medium only in well V = medium + CEM-SS cells + virus in well (M + C) = medium + CEM-SS cells (M + D) = medium + drug in well (M + D + C) = medium + drug + CEM-SS cell in well (M+D+C+V) = medium + drug + CEM-SS cells + virus in well.

[4] = tested on: HIV-1 RF; test: XTT cytoprotection assay (called Cytotoxic Assay in the tables), antiviral activity; assay type: cell-based
[5] = tested on: HIV-1 RF; test: Syncytium-forming assay (Syncytia assay), antiviral activity; assay type: cell-based
Text: To determine the HIV-1 viral titers the quantitative infectivity syncytium-forming assay described by P.L. Nara and P.J. Fischinger, "Quantitative Infectivity Assay for HIV-1 and -2," Nature, 332: 469 (1988)) was used. In this assay a single infectious unit of virus infects a single cell and initiates a focal cell change such as syncytium formation. Because a single infectious unit causes a single response, a linear relationship exists between the number of cytopathic effects caused by viral infection and the first order of virus concentration. This quantitative assay can be used to determine the titers of the HIV-1 in viral stocks, neutralization tests, and antiviral assays.
The quantitative infectivity syncytium-forming assay is applied for the direct quantitation of fusigenic virus-infected cells. CEM-SS cells were used for the syncytium-forming assay. CEM-SS cell are human T4-lymphoblastoid cells of a cell line initially derived by G.E. Foley, et al., "Continuous Culture to Human Lymphoblasts from Peripheral Blood of a Child with Acute Leukemia," Cancer, 18: 522 (1965) and biologically cloned by Nara et al., supra. The cells for this assay were provided by Dr. Nara.
CEM-SS cells were maintained in a growth medium of RPMI 1640, 10% fetal bovine serum, 1% L-glutamine (200 mM) and 50 µg/ml of gentamicin. CEM-SS cells grow in suspension. The cells have been cloned for both poly-L-lysine-induced adherence to microtiter plates and virus-induced syncytial and fusogenic sensitivity following infection with either cell-free or cell-associated HIV-1 and HIV-2. It has been determined that the cells are negative for virus including human retroviruses as determined by electron microscopy and reverse transcriptase analysis.
A.4.1. Use 96-wells flat bottom tissue culture plates and score the bottoms of all wells into 4 quadrants. A.4.2. Add 50 µl/well of diluted poly-L-lysine. Prepare stock poly-L-lysine (Poly-L-lysine hydrobromide, Sigma catalog, cat. # P-1399) at 5 mg/ml and store at -20°C for future use. For the assay dilute the stock poly-L-lysine 1:100 using phosphate buffered saline (PBS). A.4.3. Incubate plates at room temperature for no less than 30 minutes. A.4.4. Remove poly-L-lysine from wells. A.4.5. Wash the plates with 100 µl/well of Dulbecco's PBS and remove the excess PBS. A.4.6. Dilute CEM-SS cells in a logarithmic state of growth to 0.5 x 10⁶ cells per ml in a serum free medium and add 1 µg/ml polybrene. Incubate the cell suspension at 37°C for 60 minutes. Centrifuge at 800 rpm for 10 minutes and decant the supernatant fluid. A.4.7. Dilute the treated CEM-SS cell suspension to 5.0 x 10⁵ cells. Add 100 µl to the test wells so that the final cell concentration is 50,000 cells per well. Make ten-fold dilutions of the viral stock. Add 50 µl to the test wells. Add 50 µl growth medium to bring the total test volume to 200 µl. On day 3 place a clear plastic film (plate sealers, Dynatech Laboratories, Inc., cat # 001-010-3501) over the microtiter wells and evaluate for syncytium forming units (SFU).
The assay described above for determining viral titers of HIV-1 stock virus can be modified and used to evaluate the antiviral activity of compounds. A.5.1. Plates are treated with poly-L-lysine the same as above, and CEM-SS cells are polybrene treated. A.5.2. Dilute test compound in medium to desired concentrations. A.5.3. Add 100 µl CEM-SS cells to each well so that the final cell concentration is 50,000 cells per well. A.5.4. Add 50 µl of the test compound at each respective concentration to at least two wells, or four for one replicate assay. A.5.5. Add 50 µl growth medium to drug control wells. A.5.6. Add 50 µl HIV-1 virus to test wells at a concentration that provides approximately 100 SFU of virus per well. A.5.7. Run appropriate cell and viral controls. A.5.8. Incubate plates for 3 to 5 days. A.5.9. On day 3 to 5 cover plates with clear plastic sealers and count syncytial-forming units in the test wells and viral control wells.

[6] = tested on: CEM-SS cells; test: Syncytium-forming assay (Syncytia assay), toxicity in drug control wells; assay type: cell-based; conditions: Homo sapiens
Description: The assay described above for determining viral titers of HIV-1 stock virus can be modified and used to evaluate the antiviral activity of compounds. A.5.1. Plates are treated with poly-L-lysine the same as above, and CEM-SS cells are polybrene treated. A.5.2. Dilute test compound in medium to desired concentrations. A.5.3. Add 100 µl CEM-SS cells to each well so that the final cell concentration is 50,000 cells per well. A.5.4. Add 50 µl of the test compound at each respective concentration to at least two wells, or four for one replicate assay. A.5.5. Add 50 µl growth medium to drug control wells. A.5.6. Add 50 µl HIV-1 virus to test wells at a concentration that provides approximately 100 SFU of virus per well. A.5.7. Run appropriate cell and viral controls. A.5.8. Incubate plates for 3 to 5 days. A.5.9. On day 3 to 5 cover plates with clear plastic sealers and count syncytial-forming units in the test wells and viral control wells. To determine if the test compounds have antiviral activity, compare the total number of SFU in the viral control to those enumerated in the test wells.

[7] = tested on: HIV-1; test: HIV-1 antiviral in vitro assays; assay type: cell-based
[8] = Homo sapiens, CEM-SS, read-out: IC50 (converted)
[9] = Human immunodeficiency virus 1, Table VI, Cytotoxic Assay, assay date, read-out: EC50 (converted)
[10] = Human immunodeficiency virus 1, Table VI, Syncytia Assay, 06-29-94, read-out: EC50 (converted)
[11] = Table VI, Syncytia Assay, 06-29-94
[12] = Table III, Syncytia Assay (M.O.I. = .005)

## CC1(C)CCC[C@@]2(C)[C@H](c3ccoc3)C(=O)[C@H]3O[C@@]312 (racemic) [PM-92131 (±)]
[1]; Human immunodeficiency virus 1, Table I, P24 ELISA
  EC50: 0.5 mg/L (≈ 1.92 µM)
[1]; Human immunodeficiency virus 1, Table III, p24 ELISA Assay
  EC50: 0.35 mg/L (≈ 1.34 µM)
[2]
  LD₅₀: > 150 mg/kg

## CC1(C)CCC[C@]2(C)[C@H](c3ccsc3)C(=O)[C@H]3O[C@@]312 (racemic) [PM-94116 & PM-94117 (1:1)]
[3]; [8]
  IC50: 4.35 mg/L (≈ 15.7 µM)
[4]; [9]
  EC50: 2.15 mg/L
[4]; Table VI, Cytotoxic Assay
  SI: 2
[5]; [10]
  EC50: 1 mg/L
[5]; [11]
  SI: 11
[6]; [11]
  IC50: 11 mg/L (≈ 39.8 µM)
[7]
  HIV-1 antiviral activity (in words): exhibit anti-HIV-1 activity

## CC1(C)CCC[C@@]2(C)[C@H](c3ccccc3)C(=O)[C@H]3O[C@@]312 (racemic) [PM-94118(±)]
[3]; [8]
  IC50: 9 mg/L (≈ 33.3 µM)
[3]
  IC50: 1.87 μg/200 μl
[4]; [9]
  EC50: 3 mg/L
[5]; [10]
  EC50: 2 mg/L
[5]; [11]
  SI: 10
[6]; [11]
  IC50: 20 mg/L (≈ 74 µM)

## CC1(C)CCC[C@@]2(C)[C@H](c3ccsc3)C(=O)[C@H]3O[C@@]312 (racemic) [SU-0096(±)]
[3]; [8]
  IC50: 4.5 mg/L (≈ 16.3 µM)

## Cc1cn([C@H]2C[C@H](N=[N+]=[N-])[C@@H](CO)O2)c(=O)[nH]c1=O [AZT, 3'-azido-3'-deoxythymidine, reference compound]
[4]; Human immunodeficiency virus 1, Table V, Cytoprotection Assay, MOI 0.037, read-out: EC₅₀
  EC50: 0.1 µM
[4]; Human immunodeficiency virus 1, Table V, Cytoprotection Assay, MOI 0.074, read-out: EC₅₀
  EC50: 0.46 µM
[4]; Human immunodeficiency virus 1, Table V, Cytoprotection Assay, MOI 0.149, read-out: EC₅₀
  EC50: 1.3 µM
[5]; Human immunodeficiency virus 1, Table IV, Syncytia Assay, MOI 0.002, read-out: EC₅₀
  EC50: 0.01 µM
[5]; Human immunodeficiency virus 1, Table IV, Syncytia Assay, MOI 0.004, read-out: EC₅₀
  EC50: 0.01 µM
[5]; Human immunodeficiency virus 1, Table IV, Syncytia Assay, MOI 0.008, read-out: EC₅₀
  EC50: 0.01 µM
[5]; Human immunodeficiency virus 1, Table IV, Syncytia Assay, MOI 0.016, read-out: EC₅₀
  EC50: 0.07 µM

## CC1(C)CCC[C@]2(C)[C@@H](c3ccoc3)C(=O)[C@@H]3O[C@]312 [PM-92131 (-)]
[5]; Human immunodeficiency virus 1, Table III, Syncytia Assay (M.O.I. = .005), read-out: EC50 (converted)
  EC50: 4 mg/L
[5]; [12]
  SI: 10
[6]; [12]
  IC50: 40 mg/L (≈ 154 µM)
[7]
  HIV-1 antiviral activity (in words): active against HIV-1

## CC1(C)CCC[C@@]2(C)[C@@H](c3ccsc3)C(=O)[C@@H]3O[C@]312 [PM-94117]
[3]; [8]
  IC50: 12.5 mg/L (≈ 45.2 µM)
[5]; [10]
  EC50: 1.2 mg/L
[5]; [11]
  SI: 13
[6]; [11]
  IC50: 15 mg/L (≈ 54.3 µM)
